ChEMBL document CHEMBL1201862, “PubChem BioAssay data set” (2004)
Active and inactive are the calls of the source.

Key:
[1] = A Cell Based Secondary Assay To Explore Cytotoxicity of Compounds that Sensitize Mycobacterium Tuberculosis to Beta-Lactam Antibiotics.; assay type: functional
[2] = target: T1, Heat shock factor protein 1 (Mus musculus, UniProt P38532); assay: inhibition of MG132-induced HSE-luciferase signal, confirmation, cell-based, NIH3T3, luminescence, dose retest (AID 2382); assay type: functional;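 note: NIH3T3 fibroblasts with HSF1-driven luciferase reporter stressed by proteasome inhibitor MG132; luminescence from HSF1-driven luciferase expression after 8 hours of MG132 stress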
T1 sequence (P38532 whole entry): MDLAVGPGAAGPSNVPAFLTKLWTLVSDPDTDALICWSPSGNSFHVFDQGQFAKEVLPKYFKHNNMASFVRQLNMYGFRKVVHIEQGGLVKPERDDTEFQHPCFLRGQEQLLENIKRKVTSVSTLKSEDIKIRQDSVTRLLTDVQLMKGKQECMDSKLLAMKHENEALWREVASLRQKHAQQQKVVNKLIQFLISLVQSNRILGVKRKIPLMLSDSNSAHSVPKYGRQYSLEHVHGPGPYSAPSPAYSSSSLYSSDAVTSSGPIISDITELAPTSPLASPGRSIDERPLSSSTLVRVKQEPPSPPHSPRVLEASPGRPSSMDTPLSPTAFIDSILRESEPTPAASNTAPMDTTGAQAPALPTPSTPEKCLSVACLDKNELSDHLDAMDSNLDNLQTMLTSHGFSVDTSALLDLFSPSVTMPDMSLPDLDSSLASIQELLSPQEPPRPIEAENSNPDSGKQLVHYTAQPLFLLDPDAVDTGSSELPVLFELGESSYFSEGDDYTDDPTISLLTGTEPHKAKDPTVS

[3] = target: Voltage-dependent T-type calcium channel subunit alpha-1H (Homo sapiens, UniProt O95180); assay type: functional;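 note: channel activity triggered by adding a high calcium stimulation buffer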
Chain of Voltage-dependent T-type calcium channel subunit alpha-1H (O95180 whole entry): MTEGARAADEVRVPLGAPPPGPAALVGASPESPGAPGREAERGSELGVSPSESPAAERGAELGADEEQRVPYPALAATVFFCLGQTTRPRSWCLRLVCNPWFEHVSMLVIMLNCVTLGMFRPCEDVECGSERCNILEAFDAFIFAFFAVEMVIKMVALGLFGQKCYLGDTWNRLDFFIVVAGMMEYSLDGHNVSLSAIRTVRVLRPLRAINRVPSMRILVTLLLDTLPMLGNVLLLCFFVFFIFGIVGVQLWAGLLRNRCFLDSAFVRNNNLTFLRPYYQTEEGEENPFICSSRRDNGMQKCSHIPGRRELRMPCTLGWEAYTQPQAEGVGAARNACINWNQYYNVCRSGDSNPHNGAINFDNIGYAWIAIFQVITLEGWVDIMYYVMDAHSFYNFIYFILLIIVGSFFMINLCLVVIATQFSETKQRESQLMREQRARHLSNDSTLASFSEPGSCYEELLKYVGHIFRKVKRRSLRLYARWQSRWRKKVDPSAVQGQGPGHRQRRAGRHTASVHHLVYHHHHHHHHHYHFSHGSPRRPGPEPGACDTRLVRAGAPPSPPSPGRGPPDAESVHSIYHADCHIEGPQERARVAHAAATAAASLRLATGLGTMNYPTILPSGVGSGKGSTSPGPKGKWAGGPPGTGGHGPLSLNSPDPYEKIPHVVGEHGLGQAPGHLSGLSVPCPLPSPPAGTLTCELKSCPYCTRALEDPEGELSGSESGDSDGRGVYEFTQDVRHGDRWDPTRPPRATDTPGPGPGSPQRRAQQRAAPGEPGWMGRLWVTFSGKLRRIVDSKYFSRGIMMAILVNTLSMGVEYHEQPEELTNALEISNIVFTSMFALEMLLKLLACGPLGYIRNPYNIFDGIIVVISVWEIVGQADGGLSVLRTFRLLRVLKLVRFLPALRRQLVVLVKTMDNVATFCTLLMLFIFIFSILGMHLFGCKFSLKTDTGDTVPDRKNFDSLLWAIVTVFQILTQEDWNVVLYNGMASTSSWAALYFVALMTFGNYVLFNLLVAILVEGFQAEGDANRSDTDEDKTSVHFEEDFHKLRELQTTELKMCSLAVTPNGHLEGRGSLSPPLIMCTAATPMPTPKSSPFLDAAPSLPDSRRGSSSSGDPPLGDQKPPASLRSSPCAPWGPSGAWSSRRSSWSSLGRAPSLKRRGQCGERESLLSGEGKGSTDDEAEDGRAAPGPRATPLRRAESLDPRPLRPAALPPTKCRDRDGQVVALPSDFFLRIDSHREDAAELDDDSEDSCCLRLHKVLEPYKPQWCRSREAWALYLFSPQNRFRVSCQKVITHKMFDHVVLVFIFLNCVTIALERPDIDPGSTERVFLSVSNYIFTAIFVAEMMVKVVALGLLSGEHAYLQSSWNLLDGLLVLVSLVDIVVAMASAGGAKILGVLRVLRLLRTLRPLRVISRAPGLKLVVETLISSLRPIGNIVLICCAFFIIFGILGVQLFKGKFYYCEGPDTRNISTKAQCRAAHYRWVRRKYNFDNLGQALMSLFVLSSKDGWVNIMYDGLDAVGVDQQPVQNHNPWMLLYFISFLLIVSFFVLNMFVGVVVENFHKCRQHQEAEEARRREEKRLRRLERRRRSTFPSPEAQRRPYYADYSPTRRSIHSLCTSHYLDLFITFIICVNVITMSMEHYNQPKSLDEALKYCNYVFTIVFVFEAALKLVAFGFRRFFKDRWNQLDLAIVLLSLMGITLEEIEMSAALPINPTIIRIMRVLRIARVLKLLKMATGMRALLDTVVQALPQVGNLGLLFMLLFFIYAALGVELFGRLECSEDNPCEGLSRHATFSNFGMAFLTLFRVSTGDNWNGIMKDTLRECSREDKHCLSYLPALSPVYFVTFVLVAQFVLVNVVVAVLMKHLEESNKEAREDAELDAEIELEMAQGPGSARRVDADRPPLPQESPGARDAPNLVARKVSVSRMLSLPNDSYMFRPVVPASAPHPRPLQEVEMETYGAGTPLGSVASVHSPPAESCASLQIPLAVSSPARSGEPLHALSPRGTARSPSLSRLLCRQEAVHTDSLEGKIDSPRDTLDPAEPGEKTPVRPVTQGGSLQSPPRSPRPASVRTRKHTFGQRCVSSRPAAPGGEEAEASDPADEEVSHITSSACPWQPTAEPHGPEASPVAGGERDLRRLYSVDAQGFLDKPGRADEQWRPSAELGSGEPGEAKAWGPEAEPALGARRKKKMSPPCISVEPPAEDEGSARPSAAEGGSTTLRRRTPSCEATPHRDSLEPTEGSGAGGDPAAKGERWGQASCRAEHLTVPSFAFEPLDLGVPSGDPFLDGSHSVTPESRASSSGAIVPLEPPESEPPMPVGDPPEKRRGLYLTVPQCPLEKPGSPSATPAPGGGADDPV

Cytochrome P450 1A2 = target: T2, Cytochrome P450 1A2 (Homo sapiens, UniProt P05177);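 note: PubChem cytochrome P450 panel assay, CYP1A2 panel member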
T2 sequence (P05177 whole entry): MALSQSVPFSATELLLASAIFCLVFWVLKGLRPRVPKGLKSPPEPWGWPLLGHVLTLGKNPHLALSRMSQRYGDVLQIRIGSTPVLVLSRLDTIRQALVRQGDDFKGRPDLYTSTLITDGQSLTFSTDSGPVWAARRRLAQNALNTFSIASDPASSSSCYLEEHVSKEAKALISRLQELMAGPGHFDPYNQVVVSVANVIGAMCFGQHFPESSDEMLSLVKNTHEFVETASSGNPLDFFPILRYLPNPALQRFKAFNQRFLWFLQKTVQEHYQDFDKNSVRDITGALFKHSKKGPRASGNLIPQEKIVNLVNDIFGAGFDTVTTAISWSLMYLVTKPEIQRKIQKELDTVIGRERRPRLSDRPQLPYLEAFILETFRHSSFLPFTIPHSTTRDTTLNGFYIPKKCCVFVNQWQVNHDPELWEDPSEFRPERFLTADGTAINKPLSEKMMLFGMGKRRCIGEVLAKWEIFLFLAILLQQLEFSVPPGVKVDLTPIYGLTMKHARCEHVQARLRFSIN

Cytochrome P450 2C9 [4] = target: T3, Cytochrome P450 2C9 (Homo sapiens, UniProt P11712)
T3 sequence (P11712 whole entry): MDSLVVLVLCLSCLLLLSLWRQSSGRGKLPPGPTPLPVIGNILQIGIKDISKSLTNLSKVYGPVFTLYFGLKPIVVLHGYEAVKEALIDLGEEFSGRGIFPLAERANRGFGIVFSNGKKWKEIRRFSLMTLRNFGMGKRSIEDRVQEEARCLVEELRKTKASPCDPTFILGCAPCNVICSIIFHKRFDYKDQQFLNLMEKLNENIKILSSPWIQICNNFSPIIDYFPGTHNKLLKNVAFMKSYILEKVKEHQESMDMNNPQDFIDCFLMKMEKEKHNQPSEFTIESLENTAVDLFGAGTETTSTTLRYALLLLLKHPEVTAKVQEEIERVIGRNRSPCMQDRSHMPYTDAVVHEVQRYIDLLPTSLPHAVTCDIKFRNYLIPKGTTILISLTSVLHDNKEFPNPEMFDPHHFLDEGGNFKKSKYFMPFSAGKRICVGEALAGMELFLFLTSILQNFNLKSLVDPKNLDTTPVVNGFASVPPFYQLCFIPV

Cytochrome P450 2C9 [5] = target: T3, Cytochrome P450 2C9; remark: listed apart in the source
Cytochrome P450 2C19 = Cytochrome P450 2C19 (Homo sapiens, UniProt P33261); assay: Cytochrome panel assay with activity outcomes. Panel member name: p450-cyp2c19 Compounds with AC50 equal or less than 10 uM are considered active; assay type: functional; details: read-out: AC50
Chain of Cytochrome P450 2C19 (P33261 whole entry): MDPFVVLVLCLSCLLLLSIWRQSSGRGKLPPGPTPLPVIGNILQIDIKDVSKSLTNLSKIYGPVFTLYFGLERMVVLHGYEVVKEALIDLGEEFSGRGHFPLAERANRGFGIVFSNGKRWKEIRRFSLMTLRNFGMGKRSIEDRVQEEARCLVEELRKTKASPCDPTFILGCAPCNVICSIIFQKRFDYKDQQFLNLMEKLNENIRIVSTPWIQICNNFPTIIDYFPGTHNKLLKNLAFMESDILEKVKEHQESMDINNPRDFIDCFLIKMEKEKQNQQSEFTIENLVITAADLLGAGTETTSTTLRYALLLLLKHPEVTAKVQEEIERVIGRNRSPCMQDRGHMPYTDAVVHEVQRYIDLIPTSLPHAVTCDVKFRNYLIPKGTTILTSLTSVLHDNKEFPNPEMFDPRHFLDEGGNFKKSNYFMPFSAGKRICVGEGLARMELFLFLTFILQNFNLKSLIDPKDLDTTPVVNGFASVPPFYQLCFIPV

Aminopeptidase N = target: T4, Aminopeptidase N (Plasmodium falciparum FcB1/Columbia, UniProt O96935); assay: P. falciparum M1AAP inhibitors, biochemical, fluorogenic H-Leu-NHMec substrate, 1536-well (AID 1445); design: species or system Plasmodium falciparum 3D7, 3D7
T4 sequence (O96935 whole entry): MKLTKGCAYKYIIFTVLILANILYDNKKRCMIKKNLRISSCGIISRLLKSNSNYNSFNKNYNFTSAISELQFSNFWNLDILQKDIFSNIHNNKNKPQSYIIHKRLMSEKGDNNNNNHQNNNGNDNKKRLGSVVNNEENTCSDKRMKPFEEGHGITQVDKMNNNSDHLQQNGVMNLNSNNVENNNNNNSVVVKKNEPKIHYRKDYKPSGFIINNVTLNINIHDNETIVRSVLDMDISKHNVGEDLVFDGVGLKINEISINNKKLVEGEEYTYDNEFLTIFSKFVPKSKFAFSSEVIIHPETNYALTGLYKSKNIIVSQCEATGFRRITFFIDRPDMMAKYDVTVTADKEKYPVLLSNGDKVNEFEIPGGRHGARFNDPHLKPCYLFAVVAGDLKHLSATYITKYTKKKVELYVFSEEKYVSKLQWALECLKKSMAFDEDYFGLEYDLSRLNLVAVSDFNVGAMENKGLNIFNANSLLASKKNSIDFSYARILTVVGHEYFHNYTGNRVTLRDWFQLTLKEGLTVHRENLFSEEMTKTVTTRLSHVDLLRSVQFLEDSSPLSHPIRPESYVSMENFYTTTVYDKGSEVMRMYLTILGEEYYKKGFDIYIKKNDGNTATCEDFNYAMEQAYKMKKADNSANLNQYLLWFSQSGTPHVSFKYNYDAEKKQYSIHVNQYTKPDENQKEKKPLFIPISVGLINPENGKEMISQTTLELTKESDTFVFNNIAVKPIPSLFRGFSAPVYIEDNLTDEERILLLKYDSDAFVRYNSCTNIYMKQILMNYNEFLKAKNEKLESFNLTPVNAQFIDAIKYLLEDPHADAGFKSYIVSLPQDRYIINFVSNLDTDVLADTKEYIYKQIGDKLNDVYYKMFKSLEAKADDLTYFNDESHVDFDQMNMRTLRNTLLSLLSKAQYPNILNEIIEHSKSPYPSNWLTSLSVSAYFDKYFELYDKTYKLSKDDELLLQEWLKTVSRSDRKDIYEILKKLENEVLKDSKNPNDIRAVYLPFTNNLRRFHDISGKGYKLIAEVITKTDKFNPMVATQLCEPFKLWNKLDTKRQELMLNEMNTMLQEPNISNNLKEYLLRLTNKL

[6] = HEp-2 cell cytotoxicity, dose response, cytotoxicity control for RSV inhibitor project, HTS (AID 2410); assay type: functional; details: human respiratory syncytial virus
H9c2 = assay: cells; assay type: functional, cell-based; details: Rattus norvegicus, H9c2, Myocardium;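 note: confirmatory concentration-response retest of ultra-high-throughput screening hits for modulation of myocardial damage; cell death induced by hydrogen peroxide oxidative stress; compound pretreatment for 60 min then peroxide exposure for 2 h; potency is for protecting the cells against peroxide damage rather than for killing them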
[7] = target: T5, Short transient receptor potential channel 4 (Mus musculus, UniProt Q9QUQ5); assay: mouse TRPC4 channel activators, dose response, cell-based, HEK293 TRPC4/mu-opioid, Fluo-4 calcium (AID 434937); assay type: functional
T5 sequence (Q9QUQ5 whole entry): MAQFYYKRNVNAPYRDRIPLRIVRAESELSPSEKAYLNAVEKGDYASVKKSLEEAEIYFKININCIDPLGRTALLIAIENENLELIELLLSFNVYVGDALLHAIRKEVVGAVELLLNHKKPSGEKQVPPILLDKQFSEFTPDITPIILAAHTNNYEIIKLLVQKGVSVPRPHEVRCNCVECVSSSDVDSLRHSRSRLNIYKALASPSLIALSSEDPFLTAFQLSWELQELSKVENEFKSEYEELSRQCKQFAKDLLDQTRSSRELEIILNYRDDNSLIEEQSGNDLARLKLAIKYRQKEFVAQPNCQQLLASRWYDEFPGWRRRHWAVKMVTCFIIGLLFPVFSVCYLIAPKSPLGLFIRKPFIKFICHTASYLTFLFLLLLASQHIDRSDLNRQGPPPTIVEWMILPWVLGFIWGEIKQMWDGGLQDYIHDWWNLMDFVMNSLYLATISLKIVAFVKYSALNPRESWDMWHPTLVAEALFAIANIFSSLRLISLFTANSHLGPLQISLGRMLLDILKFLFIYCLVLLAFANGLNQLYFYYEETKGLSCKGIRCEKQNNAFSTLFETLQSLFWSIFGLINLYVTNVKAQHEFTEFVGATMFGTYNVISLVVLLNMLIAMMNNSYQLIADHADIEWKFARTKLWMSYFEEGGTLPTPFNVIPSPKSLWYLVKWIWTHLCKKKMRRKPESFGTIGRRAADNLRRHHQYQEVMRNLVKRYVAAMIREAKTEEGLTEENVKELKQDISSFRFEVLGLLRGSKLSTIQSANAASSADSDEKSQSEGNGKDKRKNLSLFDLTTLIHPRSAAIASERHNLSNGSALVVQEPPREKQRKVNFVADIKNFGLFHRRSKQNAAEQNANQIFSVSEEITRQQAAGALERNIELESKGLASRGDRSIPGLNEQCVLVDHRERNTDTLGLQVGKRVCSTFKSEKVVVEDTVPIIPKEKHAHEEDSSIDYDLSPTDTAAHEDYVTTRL

[8] = target: T6, Corticotropin-releasing factor receptor 2/Corticotropin-releasing factor-binding protein (Homo sapiens, UniProt P24387+Q13324); assay: Dose Response confirmation of uHTS hits for small molecule antagonists of the CRF-binding protein and CRF-R2 receptor complex.; assay type: functional; details: read-out: IC50_Mean
T6 sequence (Q13324 whole entry): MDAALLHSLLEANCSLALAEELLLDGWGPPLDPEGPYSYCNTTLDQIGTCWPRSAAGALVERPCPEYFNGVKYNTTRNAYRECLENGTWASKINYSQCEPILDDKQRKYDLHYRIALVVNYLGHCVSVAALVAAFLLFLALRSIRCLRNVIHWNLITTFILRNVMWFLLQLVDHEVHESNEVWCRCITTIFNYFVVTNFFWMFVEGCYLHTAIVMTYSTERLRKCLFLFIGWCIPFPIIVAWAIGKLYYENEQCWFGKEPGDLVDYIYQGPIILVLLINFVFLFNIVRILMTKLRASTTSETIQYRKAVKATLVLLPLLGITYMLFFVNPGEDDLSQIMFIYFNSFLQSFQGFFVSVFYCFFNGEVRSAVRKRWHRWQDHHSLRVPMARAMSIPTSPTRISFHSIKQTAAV
T6 sequence (P24387 whole entry): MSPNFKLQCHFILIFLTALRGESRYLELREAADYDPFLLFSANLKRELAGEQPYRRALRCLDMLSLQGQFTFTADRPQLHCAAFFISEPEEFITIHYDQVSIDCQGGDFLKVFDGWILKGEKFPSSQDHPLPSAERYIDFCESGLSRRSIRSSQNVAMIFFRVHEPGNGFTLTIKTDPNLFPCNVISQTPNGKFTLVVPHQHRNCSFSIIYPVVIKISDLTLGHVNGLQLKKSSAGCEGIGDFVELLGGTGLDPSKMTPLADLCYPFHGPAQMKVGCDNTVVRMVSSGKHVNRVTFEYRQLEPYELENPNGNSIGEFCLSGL

[9] = target: T6, Corticotropin-releasing factor receptor 2/Corticotropin-releasing factor-binding protein; assay: activators of CRF receptor 2 with binding protein – uHTS hits, confirmation (AID 602473); assay type: functional; details: read-out: EC50_Mean
[10] = CRF-BP/CRF-R2 complex antagonists, dose response, cell-based, uHTS hits, 384-well (AID 651639); assay type: functional, Homo sapiens; details: read-out: IC50_Mean

N#Cc1c(NC(=O)CSc2nc(-c3ccco3)cc(C(F)(F)F)n2)sc2c1CCCC2
CC50 [1]: > 40 µM (active)

CC(/C=C(\NC(=O)c1ccccc1)C(=O)N=Nc1c(O)[nH]c2ccc(C)cc12)=C\c1ccccc1
CC50 [1]: 33.7 µM (active) | EC50 [2]: 16.1 µM (active)

Cc1cccc(-c2nc(CN3CCCC(C(=O)NC4CCCCC4)C3)c(C)o2)c1 (stereo not drawn)
EC50 [3]: 2.14 µM (active) | AC50 (Cytochrome P450 1A2): 20 µM (inconclusive) | AC50 (Cytochrome P450 2C9 [4]): 28.2 µM (inconclusive)

Fc1ccc(N2CCN(c3ccc4c(C(F)(F)F)cc(C(F)(F)F)nc4n3)CC2)cc1
AC50 (Cytochrome P450 2C9 [5]): inconclusive | EC50 [3]: 4.13 µM (active) | AC50 (Cytochrome P450 1A2): 5.01 µM (inconclusive) | AC50 (Cytochrome P450 2C19): 22.4 µM (inconclusive)

Cc1ccc(-n2nc(C)c3c2NC(=O)CSC3c2ccc3c(c2)OCO3)cc1 (stereo not drawn)
EC50 [3]: 6.71 µM (active) | EC50 [2]: > 195 µM (not active)

CCCCN(CCCC)CP(=O)(c1ccccc1)c1ccccc1
EC50 [3]: 11.4 µM (active)

Cn1c(=S)[nH]c2sc3c(c2c1=O)CCC(C(C)(C)C)C3 (stereo not drawn)
CC50 [1]: 10.7 µM (active)

O=C(CS(=O)(=O)Cc1ccccc1)N1CCN(c2cccc(C(F)(F)F)c2)CC1
IC50 (Aminopeptidase N): 105 µM (active)

O=C(Nc1cccc2ccccc12)N1CCCN(c2c(Cl)cncc2Cl)CC1
CC50 [1]: > 40 µM (active)

C/C(N)=C(/C#N)C(=O)COC(=O)c1cc(-c2cccc(Br)c2)nc2ccccc12
CC50 [6]: 12.2 µM (active)

NS(=O)(=O)c1ccc(N2N=C(c3ccccc3)CC2c2cccc(F)c2)cc1 (stereo not drawn)
IC50 (Aminopeptidase N): 47.6 µM (active)

O=C(CCn1nc(-c2ccccc2)c2ccccc2c1=O)N1CCN(c2ccccc2)CC1
IC50 (H9c2): > 79 µM (inactive) | EC50 [3]: 7.63 µM (active)

Cc1ccc(C)c(NC(S)=NCCc2c[nH]cn2)c1
EC50 [7]: 2.66 µM (active)

Cc1ccc(NC(S)=NCCc2c[nH]cn2)cc1C
EC50 [7]: 0.267 µM (active)

Cc1ccc(S(=O)(=O)c2nc(NCCN(C)C)sc2Cl)cc1
IC50 (Aminopeptidase N): 12.7 µM (active)

CSc1cccc(NC(=O)CN(c2ccc(C)cc2C)S(C)(=O)=O)c1
EC50 [3]: 4.13 µM (active)

O=C(c1cccs1)N1CCN(c2ncc(Br)cn2)CC1
EC50 [7]: 0.668 µM (active)

O=C(CSc1nc2ccsc2c(=O)n1NC(=O)c1ccccc1)NCc1ccco1
IC50 (Aminopeptidase N): 72.1 µM (active)

CCCCOC1CC(c2ccc(OCc3ccc(OC)cc3)c(OC)c2)N(C)O1 (stereo not drawn)
IC50 [8]: 15.4 µM (active) | EC50 [9]: > 53 µM (inactive) | IC50 [10]: > 20 µM (inactive)

O=C1CC(c2ccc(Cl)cc2)SC(N(c2ccccc2)c2ccccc2)=N1 (stereo not drawn)
IC50 [8]: 13.8 µM (active) | EC50 [9]: > 53 µM (inactive) | IC50 [10]: 14.9 µM (active)

O=C(c1ccc(-c2ccccc2Cl)s1)N1CCOCC1
CC50 [6]: > 50 µM (active)
